Results reported in patent publication US5312816A, “Method of combatting osteoporosis in mammalian subjects, utilizing organic boron compounds” (priority 1993, dated 1994).
Where a name gives a salt, the structure may show the parent alone. Read-outs that look alike come from different tables or passages of the source.

How the values were obtained:
[1] = test system: Cf1 male mice; assay: Anti-inflammatory screen, Winter's test, 2% carrageenan hind foot; type: in vivo; conditions: Table XIV; unit inferred; unit assumed
Procedure: Anti-inflammatory Screen- Cf1 - male mice-Winter's Test 2% carrageenan S.C. plantar surface of hind foot, drugs administered @8 or 10 mg/kg I.P. 2X
Winter, C.A., et al, Proc. Soc.

[2] = test system: Sprague Dawley Rats; assay: Anti-inflammatory activity in Sprague Dawley rats; type: in vivo; conditions: Table IV; 8 mg/kg I.P.
[3] = test system: Cf1 male mice; assay: Writhing reflex, 0.6% acetic acid; type: in vivo; conditions: Table XIV; unit inferred; unit assumed
Procedure: Writhing reflex- Cf1 -male mice- 0.6% acetic acid I.P. drugs administered @20 mg/kg/ I.P. 20 min. later - the # of stretches/10 min.
Hendershot, L.C., et al, J.

[4] = molecular target: Acid phosphatase; assay: Mouse hepatic lysosomal acid phosphatase activity; type: biochemical; conditions: mouse hepatic, 60 min incubation
Excerpt: (§1) 1. Cf1 male mouse hepatic 10% homogenates in 0.25M sucrose+0.001MEDTA,pH 7.2.
(§2) Lysosomal Enzymes - free and total [triton X-100].
1. Acid phosphatase -beta glycerol-3-phosphate, pH 5.0, released IP 720 nm.
Acid phosphatase activity -

[5] = molecular target: T1, Cathepsin D (Mus musculus, UniProt P18242); assay: Mouse hepatic lysosomal cathepsin D activity; type: biochemical; conditions: mouse hepatic, 60 min incubation, read-out: Cathepsin D IC50
T1 construct: azocasein assay pH 5.0
Excerpt: as §1, §2
(§3) 2. Acid Cathepsin D -azocasein-pH 5.0, hydrolytic azo-peptide produce 366 nm.
Cathepsin azo casein activity -

[6] = molecular target: Aryl sulphatase; assay: Mouse hepatic lysosomal aryl sulphatase activity; type: biochemical; conditions: 60 min incubation
Excerpt: as §1, §2
3. Aryl sulphatase- p-nitrocatechol sulfate, pH
5. 8 p-nitro-catechol product 510 nm.

[7] = molecular target: T2, Prostaglandin synthetase (Bos taurus, UniProt O62664); assay: Prostaglandin synthetase (cyclooxygenase), purified beef seminal vesicle; type: biochemical; conditions: Table IX; commercial enzyme preparation; read-out: Beef Prostaglandin Cyclooxygenase IC50
T2 construct: Prostaglandin synthetase purified beef seminal vesicle; from tissue
T2 sequence (O62664 25-600): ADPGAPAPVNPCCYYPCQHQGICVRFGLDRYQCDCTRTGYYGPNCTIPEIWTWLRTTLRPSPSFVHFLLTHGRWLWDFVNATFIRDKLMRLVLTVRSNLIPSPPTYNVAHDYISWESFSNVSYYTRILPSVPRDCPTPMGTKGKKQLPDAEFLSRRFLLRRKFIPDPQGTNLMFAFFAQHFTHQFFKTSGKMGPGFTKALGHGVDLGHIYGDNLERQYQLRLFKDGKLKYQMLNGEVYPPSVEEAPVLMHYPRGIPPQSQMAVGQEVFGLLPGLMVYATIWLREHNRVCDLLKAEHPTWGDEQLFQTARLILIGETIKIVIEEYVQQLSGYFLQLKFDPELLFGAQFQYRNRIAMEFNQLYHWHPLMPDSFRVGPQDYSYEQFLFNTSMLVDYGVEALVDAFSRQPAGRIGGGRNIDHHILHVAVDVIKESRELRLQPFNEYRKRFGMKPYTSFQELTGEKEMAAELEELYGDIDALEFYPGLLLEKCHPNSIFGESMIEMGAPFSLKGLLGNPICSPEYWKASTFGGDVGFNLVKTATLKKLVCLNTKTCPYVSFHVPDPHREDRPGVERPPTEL
Excerpt: (§4) Prostaglandin synthetase purified beef seminal vesicle ^3 H arachidonic acid (86.2 Ci/mmol), tlc separation.

[8] = test system: Trypsin; assay: Mouse hepatic trypsin activity; type: biochemical; conditions: 60 min incubation
Excerpt: as §1
1. Trypsin- N-benzoyl-L-arginine ethyl ester pH 8.0, hydrolytic product 253 nm.

[9] = molecular target: Elastase; assay: Mouse hepatic elastase activity; type: biochemical; conditions: Table VI, 60 min incubation
Excerpt: as §1
(§5) 2. Elastase- N-succinyl-L-alanyl-L-alanine-p-nitroanilide, pH 8.0, p-nitro anilide 410 nm.
Elastase activity - in vitro

[10] = molecular target: T1, Cathepsin D; assay: Mouse macrophage cathepsin D activity; type: cell-based; conditions: 60 min incubation
Excerpt: (§6) 3. Mouse macrophages J774A.1 BALB/c
as §3

[11] = test system: Acid phosphatase; assay: Mouse macrophage acid phosphatase activity; type: cell-based; conditions: 60 min incubation, read-out: Acid Phosphatase IC50
[12] = test system: Aryl sulphatase; assay: Mouse macrophage aryl sulphatase activity; type: cell-based; conditions: 60 min incubation, read-out: Aryl Sulphatase IC50
[13] = test system: Trypsin; assay: Mouse macrophage trypsin (BAEE) activity; type: cell-based; conditions: 60 min incubation, read-out: Trypsin BAEE IC50
[14] = test system: Elastase; assay: Mouse macrophage elastase activity; type: cell-based; conditions: 60 min incubation, read-out: Elastase IC50
[15] = test system: Prostaglandin cyclooxygenase; assay: Mouse macrophage prostaglandin cyclooxygenase activity; type: cell-based; conditions: 60 min incubation, read-out: Prostaglandin Cyclooxygenase IC50
Excerpt: as §6, §4

[16] = molecular target: Clostridium histolyticum Collagenase Type I; assay: Commercial collagenase type I; type: biochemical; conditions: Table IX; commercial enzyme preparation
Excerpt: (§7) 3. Collagenase I, Clostridium histolyticum, bone, skin, tendon, blood vessel, dentine, GI. substrate: rat collagen, N-[propionate-2-3-^3 H] propionylated measured as dpm released.

[17] = molecular target: T3, Porcine Pancreatic Elastase (Sus scrofa, UniProt P00772); assay: Porcine pancreatic elastase activity in vitro; type: biochemical; conditions: Table IX; commercial enzyme preparation
T3 construct: purchased; host or cells: porcine pancreas
Excerpt: as §5

[18] = test system: Cf1 male mice; assay: Hot plate tail flick test; type: in vivo; conditions: Table XIV; unit not given
[19] = molecular target: T4, Pg. cyclooxygenase (Sus scrofa, UniProt A0A287ANF9); assay: Porcine seminal vesicles Pg. cyclooxygenase; type: biochemical
T4 construct: Porcine Seminal; from tissue; the methods section prints beef seminal vesicle

[20] = molecular target: Commercial Collagenase; assay: Commercial collagenase (type not stated); type: biochemical; conditions: Table XVI; 60 min incubation
Excerpt: as §7
4. Collagenase II, Clostridium histolyticum, cartilage collagen.

[21] = test system: Cf1 male mice; assay: Writhing reflex, 0.6% acetic acid; type: in vivo; conditions: Mus musculus, ip, Table IV
[22] = test system: testes; conditions: 250 mg/kg for 16 days; cited from earlier work
[23] = test system: urinary excretion of calcium, magnesium, phosphorus; conditions: in the diet at 3 mg/day; cited from earlier work
[24] = test system: human osteosarcoma cells; assay: Cytotoxicity against growth of human osteosarcoma cells; type: cell-based; conditions: Table XX; human osteosarcoma (ATCC); read-out: Cytoxicity ED-50 Osteosarcoma
[25] = test system: human osteoporosis fibroblastic cells; assay: Cytotoxicity against growth of human osteoporosis fibroblastic cells; type: cell-based; conditions: Fibroblast, Table XX, read-out: Cytoxicity ED-50 Osteoporosis Fibroblasts
[26] = Table VII, mouse macrophage cultured cells

T1 sequence (P18242 65-410): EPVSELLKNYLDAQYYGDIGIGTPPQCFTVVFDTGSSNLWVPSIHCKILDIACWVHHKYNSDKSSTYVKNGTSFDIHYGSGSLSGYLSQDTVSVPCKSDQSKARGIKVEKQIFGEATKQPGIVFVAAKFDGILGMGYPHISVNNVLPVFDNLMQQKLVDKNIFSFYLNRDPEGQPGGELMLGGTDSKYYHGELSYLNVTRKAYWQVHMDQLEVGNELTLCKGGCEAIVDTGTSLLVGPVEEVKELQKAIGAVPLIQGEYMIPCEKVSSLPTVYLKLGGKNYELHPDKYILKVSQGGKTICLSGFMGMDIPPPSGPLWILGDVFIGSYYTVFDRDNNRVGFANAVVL
T4 sequence (A0A287ANF9 25-600): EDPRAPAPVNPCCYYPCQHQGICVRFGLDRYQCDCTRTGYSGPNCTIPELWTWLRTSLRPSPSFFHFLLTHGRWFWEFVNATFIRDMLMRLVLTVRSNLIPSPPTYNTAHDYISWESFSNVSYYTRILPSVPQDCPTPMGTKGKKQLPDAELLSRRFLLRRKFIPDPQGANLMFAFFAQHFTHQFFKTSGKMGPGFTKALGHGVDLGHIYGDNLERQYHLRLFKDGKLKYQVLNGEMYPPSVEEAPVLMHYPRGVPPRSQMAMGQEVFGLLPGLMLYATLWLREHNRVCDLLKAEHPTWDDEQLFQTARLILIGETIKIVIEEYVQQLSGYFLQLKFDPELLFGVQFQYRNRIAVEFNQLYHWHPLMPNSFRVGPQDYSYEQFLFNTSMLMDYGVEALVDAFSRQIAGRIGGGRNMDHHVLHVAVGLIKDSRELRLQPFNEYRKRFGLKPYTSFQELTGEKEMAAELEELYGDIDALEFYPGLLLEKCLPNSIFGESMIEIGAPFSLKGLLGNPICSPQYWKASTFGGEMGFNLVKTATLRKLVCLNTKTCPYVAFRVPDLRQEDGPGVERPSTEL
T3 sequence (P00772 27-266): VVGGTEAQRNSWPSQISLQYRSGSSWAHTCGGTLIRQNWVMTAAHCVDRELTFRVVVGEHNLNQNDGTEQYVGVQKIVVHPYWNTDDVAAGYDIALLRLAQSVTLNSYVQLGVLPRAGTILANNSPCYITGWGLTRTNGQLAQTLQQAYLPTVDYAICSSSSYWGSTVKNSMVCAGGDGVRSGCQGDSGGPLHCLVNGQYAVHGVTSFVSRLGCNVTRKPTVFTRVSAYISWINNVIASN

SMILES: C[NH+](C)[BH2-]C(=O)O [Compound 23, Dimethylamine-carboxyborane, sodium salt]
- Anti-Inflammation Cf1 Mice [1]: 68.5%
- Anti-Inflammatory Activity Sprague Dawley Rats [2]: 55 % Control
- Writhing Reflex Mice [3]: 70.4%
- IC50 ([4]; Table V): 7.89 µM
- IC50 ([4]; Table XV): 3.58 µM
- IC50 ([5]; Table V): 3.76 µM
- IC50 ([5]; Table XV): 7.65 µM
- IC50 ([6]; Table XV): 2.83 µM
- IC50 [7]: 3.25 µM
- IC50 ([8]; Table VI, mouse hepatic, read-out: Trypsin IC50): 0.83 µM
- IC50 ([8]; Table XVI, read-out: Mouse Hepatic Trypsin IC50): 9.95 µM
- IC50 [9]: 25.9 µM
- IC50 ([10]; Table VII, mouse macrophage cultured cells, DMEM +10% FCS +P/S, read-out: Cathepsin D IC50): 6.39 µM
- IC50 ([10]; Table XVII, mouse macrophage, read-out: Cathepsin D pH 5.0 IC50): 2.28 µM
- IC50 [11, 26]: 4.75 µM
- IC50 ([11]; Table XVII, mouse macrophage): 1.42 µM
- IC50 ([12]; Table XVII, mouse macrophage): 1.6 µM
- IC50 ([13]; Table VIII, mouse macrophages): 3.1 µM
- IC50 ([13]; Table XVIII, mouse macrophage): 2.21 µM
- IC50 ([14]; Table VIII, mouse macrophages): 2.67 µM
- IC50 ([14]; Table XVIII, mouse macrophage): 6.35 µM
- IC50 ([15]; Table VIII, mouse macrophages): 2.91 µM
- IC50 ([15]; Table XVIII, mouse macrophage): 2.07 µM
- IC50 [16]: 667 µM
- IC50 [17]: 37.3 µM
- Tail Flick Mice [18]: 156
- IC50 [19]: 3.1 µM
- IC50 [20]: 506 µM
- response vs control in vivo at 20 mg/kg [21]: 2%

SMILES: OB(O)O [boric acid]
- effect on testes [22]: severe degeneration of the testes with giant cell formation, pyknosis and exfoliation
- urinary excretion of calcium, magnesium and perhaps phosphorus [23]: blocks the urinary excretion of calcium, magnesium and perhaps phosphorus

SMILES: C[N+](C)(C)[BH2-]C(=O)NO [Compound 14, Trimethylamine-boranecarbohydroxamic acid tetraphenylborate salt.]
- Anti-Inflammatory Activity Sprague Dawley Rats [2]: 60 % Control
- IC50 ([4]; Table V): 4.22 µM
- IC50 ([5]; Table V): 3.66 µM
- IC50 ([6]; Table V): 5.85 µM
- IC50 [7]: 1.3 µM
- IC50 [11, 26]: 3.96 µM
- IC50 [12, 26]: 1.37 µM
- IC50 ([13]; Table VIII, mouse macrophages): 2.14 µM
- IC50 ([14]; Table VIII, mouse macrophages): 1.49 µM
- IC50 ([15]; Table VIII, mouse macrophages): 1.61 µM
- IC50 [24]: 1.14 µg/mL
- IC50 [25]: 1.21 µg/mL
- response vs control in vivo at 8 mg/kg ([21]; 8 mg/kg I.P.): 50%
